{
  "source": "patent US12324818B2",
  "about": "“Generation of alveolar epithelial type 1 (AT1) cells” (TRUSTEES OF BOSTON UNIVERSITY, priority 2022, dated 2025)",
  "molecules": {"B1": {"name": "keratinocyte growth factor (KGF) protein (protein, UniProt P21781 32-194, looked up)", "Fibroblast growth factor 7": "CNDMTPEQMATNVNCSSPERHTRSYDYMEGGDIRVRRLFCRTQWYLRIDKRGKVKGTQEMKNNYNIMEIRTVAVGIVAIKGVESEFYLAMNKEGKLYAKKECNEDCNFKELILENHYNTYASAKWTHNGGEMFVALNQKGIPVRGKKTKKEQKTAHFLPMAIT", "notes": "recombinant human keratinocyte growth factor"}},
  "type_in_all_cases": "cell-based, human",
  "key": {"iAT2s [1]": {"system": "iAT2s", "experiment": "Withdrawal of Chir or KGF in YAP5SA-transduced BU3 NGAT iAT2s", "details": "YAP5SA differentiation model", "excerpt": "FIG. 13A) BU3 NGAT iAT2s were passaged into 3D Matrigel in CK+DCI for 3 days, and then media was switched to media containing LATS-IN-1 and either Chir or KGF and grown for a further 11 days. Representative flow cytometry of NKX2-1GFPand AGERtdTomato. FIG. 13B) Quantification of AGERtdTomatocompared to CK DCI+L and DCI+L quantification in FIGS. 5A-5L. (N=3 per condition, 1 way ANOVA). FIG. 13C) BU3 NGAT iAT2s were transduced with either WT YAP or YAP5SA lentivirus in suspension with polybrene for 4 hours and then replated into 3D Matrigel in CK DCI. After 5 days, media was changed to withdraw one or both growth factors from the media. Cells were analyzed 11 days post media change. FIG. 13D) Cell counts of WT YAP and YAP5SA transduced cells in different medias (2 way ANOVA). First series is CK+DCI, second series is C+DCI, third series is K+DCI, fourth series is DCI. FIG. 13E) Representative flow cytometry of NKX2-1GFP and AGERtdTomato. FIG. 13F) Quantification of AGERtdTomatopercentage and Mean Fluorescence Intensity following YAP5SA transduction. (2 way ANOVA). First series is CK+DCI, second series is C+DCI, third series is K+DCI, fourth series is DCI. FIGS. 13G-13H) Gene expression of AT1 markers, YAP downstream targets, and AT2 markers by whole well RT-qPCR. (N=3, 2 way ANOVA). First series is CK+DCI, second series is C+DCI, third series is K+DCI, fourth series is DCI. […]"}, "iAT2s [2]": {"system": "iAT2s", "experiment": "AGERtdTomato reporter induction in BU3 NGAT iAT2s (flow cytometry, live imaging)", "details": "for effect on AGERtdTomato percentage and MFI: media containing L", "excerpt": "FIG. 5A) BU3 NGAT iAT2s were passaged as usual into 3D Matrigel with CK+DCI+RI medium for 3 days. Medium was then kept the same or switched to LATS inhibitor-based media. CK DCI+L, DCI, or L DCI. (C=Chir, K=rhKGF, L=LATS-IN-1; “DCI” as defined in FIG. 2). FIG. 5B) Representative live fluorescence microscopy of iAT2s (BU3 NGAT clone) at 9 days after changing to the indicated medium, either without (FIG. 5B) or with (FIG. 5C) YAP5SA transduction (Scale bars=500 um in B; 50 um in FIG. 5C). FIG. 5D) Representative flow cytometry plots of NKX2-1GFP and AGERtdTomato 9 days post after changing to cach indicate medium. FIG. 5E) Cell counts and flow cytometry quantification of AGER tdTomato+ percentage and Mean Fluorescence Intensity (MFI) 9 days post medium change. One way ANOVA, N=3 per condition. FIG. 5F) Gene expression of AT1 and AT2 markers by whole well RT-qPCR. (1 way ANOVA, N=3 per condition). FIG. 5G) Whole mount immunofluorescence microscopy of BU3 NGAT organoids in L+DCI. Scale bar=50 um. FIG. 5H) Primary adult human AT2 cells (1° AT2s) were cultured as described 5 and 7 days post plating, medium was changed to published, human-serum containing Alveolar Differentiation Media (ADM) or L+DCI. Whole well RT-qPCR of selected genes 7 days post medium change. 1 way ANOVA, N=3 per condition. FIG. 5I) Experimental schematic: BU3 NGAT iAT1s were grown in L+DCI for 10 days, sorted on AGERtdTomato, and then plated in 3D Matrigel in either L+DCI or CK+DCI. Outgrowths of sorted cells were analyzed after an additional 9 days. FIG. 5J) Representative flow cytometry plots of AGERtdTomato+ outgrowth from (FIG. 5I). FIG. 5K) Quantification of indicated fluorescence (FACS), cell counts, or transcript expression (FIG. 5LL; whole well RT-qPCR) of cells from (FIG. 5I). Control sorted iAT1s in L are freshly sorted AGERtdTomato+ cells after 9 days in L+DCI. (N=3 per condition; K=Student's t test; L=1 way ANOVA). *p<0.05, **p<0.01, ***p<0.001, and […] for all panels.\n(§1) iPSCs were first differentiated into iAT2s and passaged as above in 3D cultures in iAT2 medium (CK+DCI) supplemented for the first 3 days after passaging with 10 uM Y-27632 (Tocris). To generate iAT1s, 3 days after passaging iAT2s in 3D, the medium was replaced with “L+DCI”, consisting of [10 uM LATS-IN-1 (“L”; MedChemExpress Cat. No.: HY-138489), 50 nM dexamethasone (“D”; Sigma-Aldrich), 0.1 mM 8-bromoadenosine 3′,5′cyclic monophosphate sodium salt (Sigma-Aldrich; “C”), and 0.1 mM 3-isobutyl-1-methylxanthine (IBMX; Sigma-Aldrich; “I”)]. Cells were cultured up to 16 days in L+DCI in 3D while monitoring AGERtdTomatoexpression as detailed in the text.\n0.05% trypsin was used to generate single cell suspensions which were resuspended in sort buffer [HBSS (ThermoFisher) with 2% FBS, 10 uM Y-27632 (Tocris)] with Live/dead stain [Calcein blue (Life technologies) or DRAQ7 (Abcam)]. Cells were sorted based on reporter expression: NKX2-1GFP and AGERtdTomatofor BU3 NGAT, or SFTPCtdTomatofor SPC2B2, as indicated in the text. Cell sorting was performed on a Moflo Astrios EQ (Beckman Coulter) and flow cytometry analysis was performed on an LSRII SORP (BD Biosciences) at the Boston University Flow Cytometry Core Facility. For Edu assays, the Click-iT Plus EdU Alexa Fluor 647 Flow Cytometry Assay Kit (Thermo Fisher Scientific) was used with EdU added 24 hours before cell isolation, and cells fixed in 4% paraformaldehyde (PFA) were analyzed on a Stratedigm (S1000EXI) cytometer with post-processing using Flow Jo software (BD Biosciences). For all other analyses, live non-fixed cells were sorted or analyzed as indicated in the text."}, "iAT2s [3]": {"system": "iAT2s", "experiment": "Whole well RT-qPCR of AT1/AT2 markers in iAT2s in LATS inhibitor media", "method": "as §1\nFor RT-qPCR, whole well or sorted cells were collected and stored in Qiazol (Qiagen, 79306) prior to RNA isolation using RNeasy Plus Mini Kit according to the manufacturer's protocol (Qiagen, 74104), cDNA was then synthesized using MultiScribe™ Reverse Transcriptase (ThermoFisher 4311235). A QuantStudio instrument (Applied Biosciences) and predesigned Taqman probes were used and run in a 384-well format for 40 cycles. Relative expression was normalized to an 18S control and fold change over control cells was calculated using 2-ΔΔCt. Where indicated in the text, RNA extracts from adult primary human distal lung tissue explants, the kind gift of Barry Stripp (Cedars Sinai, Los Angeles) were employed as RT-qPCR controls. RNA was isolated via RNeasy Plus Mini Kit following manufacturer's protocol."}},
  "data": [
    {"molecule": "Cc1c[nH]c(-c2cnc(NCCNc3ccc(C#N)cn3)nc2-c2ccc(Cl)cc2Cl)n1", "note": "[Chir, CHIR99021]", "values": [
      {"measurement": "effect on AGERtdTomato and AT1 markers by bulk RT-qPCR", "setting": "iAT2s [1]", "result": "inhibitory effects"},
      {"measurement": "effect on AGERtdTomato percentage and MFI", "setting": "iAT2s [2]", "result": "significantly inhibitory"}
    ]},
    {"molecule": "O=C(N=c1sccn1Cc1ccccc1)c1c[nH]c2ncccc12", "note": "[LATS-IN-1, N-(3-benzylthiazol-2(3H)-ylidene)-1H-pyrrolo[2,3-b]pyridine-3-carboxamide]", "values": [
      {"measurement": "NKX2-1 expression", "setting": "iAT2s [3]; iAT2 media vs medias containing LATS-IN-1", "result": "unchanged"},
      {"measurement": "SFTPC expression", "setting": "iAT2s [3]; medias containing LATS-IN-1", "result": "decreased"},
      {"measurement": "AGER, CAV1, PDPN, and CLIC5 expression", "setting": "iAT2s [3]; whole well RT-qPCR, wells containing the LATS inhibitor", "result": "significantly upregulated"},
      {"measurement": "AGERtdTomato induction, % of the NKX2-1GFP+ cells", "setting": "iAT2s [2]; BU3 NGAT iAT2s in L+DCI, increasing over the following 2 weeks", "result": "84.97±1.23", "unit": "%"},
      {"measurement": "time to detectable AGERtdTomato induction in the NKX2-1+ population", "setting": "iAT2s [2]; L supplementation of iAT2s", "result": "≤ 72", "unit": "h"},
      {"measurement": "time to morphologic changes resembling YAP5SA-transduced cells", "setting": "iAT2s [2]; L supplementation of iAT2s", "result": "≤ 48", "unit": "hours"},
      {"measurement": "iAT2s in which the AT1 program is driven", "setting": "iAT2s [2]; complete serum free defined media containing LATS inhibitor", "result": "up to 97%"},
      {"measurement": "dose yielding greatest frequency and brightness (MFI) of NKX2-1GFP/AGERtdTomato+ cells", "setting": "iAT2s [2]; dose response testing, medium replaced day 3 after passaging, 2 weeks post passage", "result": 10, "unit": "µM"}
    ]},
    {"molecule": "B1", "values": [
      {"measurement": "effect on AGERtdTomato and AT1 markers by bulk RT-qPCR", "setting": "iAT2s [1]", "result": "inhibitory effects"},
      {"measurement": "effect on AGERtdTomato percentage and MFI", "setting": "iAT2s [2]", "result": "significantly inhibitory"}
    ]}
  ]
}
